What was measured:
[1] = Experiment 4: plasma analysis, [^11C]AFM and [^18F]AFM in the same baboon
Method: The animal was then injected with [^18F]AFM (2.60 mCi, 425 Ci/mmol, 1.51 μg) and scanned for 90 minutes. […] Arterial activity was corrected for parent fraction to form the input function.

SERT [2] = conditions: same baboon, one tissue compartment model
Method: The animal was then injected with [^18F]AFM (2.60 mCi, 425 Ci/mmol, 1.51 μg) and scanned for 90 minutes. Analysis of the input function and brain uptake was performed as described in the previous section. […] Arterial activity was corrected for parent fraction to form the input function.
Data were analyzed with a one tissue compartment model.

[3] = Biodistribution of labeled radioligands in male Sprague-Dawley rats; type: in vivo; conditions: mean ± SD, n = 3
From the text: Appropriately labeled compounds were studied in animals to assess their binding characteristics in the brain. Procedures for these biodistribution studies are as follows. […] The brain regions (cerebellum, hippocampus, striatum, frontal cortex, thalamus and hypothalamus), along with samples of blood and part of the tail, were removed, weighed, and counted in a Packard Cobra II gamma counter. The percent injected dose (% ID) of the decay- and tail-corrected activity in the brain regions and blood were calculated based upon C-11 standards prepared from the injection solution, and the % ID/g were calculated using the tissue weights.

SERT [4] = experiment: Experiment 5: PET brain imaging of ^11C and ^18F labeled AFM, AFA, AFE in one baboon; type: in vivo; conditions: one adult male baboon, n = 1 to 4 scans, two-compartment model
Method: (§1) General scanning methods were as described in Huang et al. (2002). Arterial input function was measured and corrected for metabolites.
Activity distributed in the brain in accordance to the known density distribution pattern of SERT (Laruelle et al., 1988). […] Data were analyzed with a two-compartment model, using the metabolite-corrected arterial time-activity curve as input function. This analysis provided the regional distribution volumes (VT, mL/g).
The nonspecific distribution volume, measured as the distribution volume of the cerebellum (a region with negligible SERT density) was in a similar range for all tracers (10 to 30 mL/g, Table 16).
The specific to nonspecific partition coefficient, V3″, was calculated as the ratio of VT in the region of interest (ROI) to cerebellum VT minus one. V3″ provides a measure related to receptor parameters as follows: […]

[5] = Experiment 5: plasma clearance of ^11C and ^18F labeled AFM, AFA, AFE in one baboon; type: in vivo; conditions: one adult male baboon, n = 1 to 4 scans
Method: as §1

SERT [6] = conditions: literature; cited from earlier work
[7] = baboons (Acton et al., 1999a); cited from earlier work

CN(C)Cc1ccccc1Sc1ccc(C[18F])cc1N [[^18F]AFM, [^18F]2-[2-(Dimethylaminomethyl)phenylthio]-5-fluoromethylphenylamine]
Clearance of the parent compound [1]: 54 L/h
Percent plasma activity corresponding to the parent compound ([1]; 2 minutes): 63.5%
Percent plasma activity corresponding to the parent compound ([1]; 4 minutes): 40.0%
Percent plasma activity corresponding to the parent compound ([1]; 12 minutes): 21.3%
Percent plasma activity corresponding to the parent compound ([1]; 30 minutes): 8.7%
Percent plasma activity corresponding to the parent compound ([1]; 60 minutes): 5.3%
Percent plasma activity corresponding to the parent compound ([1]; 90 minutes): 4.6%
Thalamus V3″ (SERT [2]): 2.27
% ID/g Blood ([3]; 10 min post-injection): 0.37 ± 0.04 % ID/g
% ID/g Cerebellum ([3]; 10 min post-injection): 0.33 ± 0.04 % ID/g
% ID/g Frontal Ctx. ([3]; 10 min post-injection): 0.82 ± 0.14 % ID/g
% ID/g Hippocamp. ([3]; 10 min post-injection): 0.51 ± 0.07 % ID/g
% ID/g Hypothal. ([3]; 10 min post-injection): 0.70 ± 0.08 % ID/g
% ID/g Striatum ([3]; 10 min post-injection): 0.69 ± 0.15 % ID/g
% ID/g Thalamus ([3]; 10 min post-injection): 0.72 ± 0.13 % ID/g
% ID/g Blood ([3]; 30 min post-injection): 0.28 ± 0.02 % ID/g
% ID/g Cerebellum ([3]; 30 min post-injection): 0.23 ± 0.03 % ID/g
% ID/g Frontal Ctx. ([3]; 30 min post-injection): 0.99 ± 0.20 % ID/g
% ID/g Hippocamp. ([3]; 30 min post-injection): 0.64 ± 0.12 % ID/g
% ID/g Hypothal. ([3]; 30 min post-injection): 0.82 ± 0.16 % ID/g
% ID/g Striatum ([3]; 30 min post-injection): 0.83 ± 0.12 % ID/g
% ID/g Thalamus ([3]; 30 min post-injection): 0.88 ± 0.06 % ID/g
% ID/g Blood ([3]; 60 min post-injection): 0.10 ± 0.04 % ID/g
% ID/g Cerebellum ([3]; 60 min post-injection): 0.13 ± 0.02 % ID/g
% ID/g Frontal Ctx. ([3]; 60 min post-injection): 0.71 ± 0.18 % ID/g
% ID/g Hippocamp. ([3]; 60 min post-injection): 0.45 ± 0.09 % ID/g
% ID/g Hypothal. ([3]; 60 min post-injection): 0.71 ± 0.14 % ID/g
% ID/g Striatum ([3]; 60 min post-injection): 0.57 ± 0.12 % ID/g
% ID/g Thalamus ([3]; 60 min post-injection): 0.67 ± 0.15 % ID/g
% ID/g Blood ([3]; 90 min post-injection): 0.08 ± 0.03 % ID/g
% ID/g Cerebellum ([3]; 90 min post-injection): 0.08 ± 0.01 % ID/g
% ID/g Frontal Ctx. ([3]; 90 min post-injection): 0.52 ± 0.19 % ID/g
% ID/g Hippocamp. ([3]; 90 min post-injection): 0.36 ± 0.12 % ID/g
% ID/g Hypothal. ([3]; 90 min post-injection): 0.58 ± 0.13 % ID/g
% ID/g Striatum ([3]; 90 min post-injection): 0.45 ± 0.17 % ID/g
% ID/g Thalamus ([3]; 90 min post-injection): 0.50 ± 0.15 % ID/g
% ID/g Blood ([3]; 120 min post-injection): 0.04 ± 0.00 % ID/g
% ID/g Cerebellum ([3]; 120 min post-injection): 0.07 ± 0.02 % ID/g
% ID/g Frontal Ctx. ([3]; 120 min post-injection): 0.38 ± 0.09 % ID/g
% ID/g Hippocamp. ([3]; 120 min post-injection): 0.28 ± 0.05 % ID/g
% ID/g Hypothal. ([3]; 120 min post-injection): 0.55 ± 0.08 % ID/g
% ID/g Striatum ([3]; 120 min post-injection): 0.42 ± 0.10 % ID/g
% ID/g Thalamus ([3]; 120 min post-injection): 0.56 ± 0.10 % ID/g
Cerebellum V (nonspecific distribution volume) (SERT [4]): 23 ± 6 mL/g
Clearance [5]: 40 ± 1 L/h

CN(C)Cc1ccccc1Sc1ccc([123I])cc1N [[^123I]ADAM]
Target to background ratio in vivo compared to [^123I]IDAM (SERT [6]): four times higher
VT CER measured with SPECT [7]: 2.25 ± 0.46 mL/g
